Like-named read-outs stand apart in the source and are kept apart here.
Tests used:
RVH-421 = experiment: Cancer cell line profiling, Genomics of Drug Sensitivity Project; settings: Homo sapiens, RVH-421, read-out: CD532 EC50 (uM)
RL95-2 = experiment: as above; settings: Homo sapiens, RL95-2, read-out: CD532 EC50 (uM)
SNU-449 = experiment: as above; settings: Homo sapiens, SNU-449, read-out: CD532 EC50 (uM)
WM35 = experiment: as above; settings: WM35, read-out: CD532 EC50 (uM)
ML-1 = experiment: as above; settings: ML1, read-out: CD532 EC50 (uM)
SNU-61 = experiment: as above; settings: read-out: CD532 EC50 (uM)
MKN1 = experiment: as above; settings: Homo sapiens, MKN-1, read-out: CD532 EC50 (uM)
[1] = Pharmacokinetics of CD532 in mice; format: in vivo; settings: mouse, serum, ip, 20 mg/kg, intraperitoneal injection
MYCN [2] = experiment: MYCN protein by western blot in SK-N-BE(2) cells; format: cell-based
Description: (§1) Neuroblastoma tumor cell lines were obtained from the University of California San Francisco Cell Culture Facility (Kelly, SK-N-BE2, and SH-EP). SMS-KCN, SHEP MYCN^wt and MYCN^T58A/S62A cells were obtained. All cells were grown in RPMI with 10% FBS. Neuroblastoma cells were harvested and lysed with Cell Signaling Lysis buffer+1% SDS, sonicated and supernatants boiled in LDS sample buffer (Invitrogen). Western blots were performed as described previously (Chanthery et al., 2012), with primary antibodies to MYCN (ab24193, Abcam), Histone H3, P-Histone H3 (S10), Aurora A (Cell signaling), and GAPDH (Millipore). Western blot quantitation performed with ImageJ software.

P-Histone H3 (S10) = experiment: Dose response immunoblot for phosphorylation of Histone H3 (S10) in MYCN-amplified neuroblastoma cell lines; format: cell-based; settings: FIGS. 1D and 7
Description: as §1

MYCN [3] = experiment: Screen of Kelly MYCN-amplified cells, western blot for MYCN; format: cell-based; settings: 1 μM, 24 hrs
Description: as §1
To test whether this panel of 32 putative conformation-disrupting Aurora A inhibitors would destabilize MYCN, initially Kelly MYCN-amplified neuroblastoma cells were treated with candidate inhibitors and MYCN protein was measured by western blot. Phosphorylation of Histone H3, a known substrate for Aurora A and B and a marker for mitosis, was also assessed. FIGS. 1B and 5 show decreased levels of both MYCN protein and p-Histone H3 in response to several members of the screening panel (quantitated in FIG. 1).

GI-ME-N = experiment: Cancer cell line profiling, Genomics of Drug Sensitivity Project
YAPC = experiment: as above; settings: Homo sapiens, read-out: CD532 EC50 (uM)
UACC-257 = experiment: as above; settings: Homo sapiens, UACC-257, read-out: CD532 EC50 (uM)
IMR-5 = experiment: as above; settings: Homo sapiens, IMR-5, read-out: CD532 EC50 (uM)
KP-N-YS = experiment: as above; settings: read-out: CD532 EC50 (uM)
AsPC-1 = experiment: as above; settings: Homo sapiens, ASPC1, read-out: CD532 EC50 (uM)
BICR 10 = experiment: as above; settings: read-out: CD532 EC50 (uM)
SK-MEL-30 = experiment: as above; settings: Homo sapiens, SK-MEL-30, read-out: CD532 EC50 (uM)
HO-1-N-1 = experiment: as above; settings: read-out: CD532 EC50 (uM)
SNU-423 = experiment: as above; settings: Homo sapiens, SNU-423, read-out: CD532 EC50 (uM)
BB30-HNC = experiment: as above; settings: read-out: CD532 EC50 (uM)
A253 = experiment: as above; settings: Homo sapiens, A253, read-out: CD532 EC50 (uM)
NB17 = experiment: as above; settings: read-out: CD532 EC50 (uM)
SK-HEP-1 = experiment: as above; settings: Homo sapiens, SK-HEP1, read-out: CD532 EC50 (uM)
[4] = tested on: SK-N-BE(2) MYCN-amplified neuroblastoma cells; experiment: Viability at 72 hrs, CyQUANT assay; format: cell-based; settings: Homo sapiens, SKNBE2, SK-N-BE(2) cells, FIG. 1E, read-out: cellular EC50 at 72 hrs
Description: For viability studies, neuroblastoma cells were plated in 96-well plates at a density of 1,000 cells/well for SHEP or 4,000 cells/well for Kelly or SK—N-BE2 cells, then incubated with indicated concentrations of drug for 72 hours at 37° C. Plates were frozen at −80° C. to induce cell lysis. CyQUANT reagent mixture (Invitrogen, C7026) was added to thawed plates, then fluorescence was measured. Alternatively, resazurin (Sigma-Aldrich, R7017) was added directly to wells following drug treatment then incubated for 4 hours at 37° C. prior to measuring fluorescence. Data was analyzed using GraphPad Prism software.

IGR-37 = experiment: Cancer cell line profiling, Genomics of Drug Sensitivity Project; settings: Homo sapiens, IGR-37, read-out: CD532 EC50 (uM)
OVKATE = experiment: as above; settings: read-out: CD532 EC50 (uM)

O=C(Nc1ccc(Nc2nccc(Nc3cc(C4CCCC4)[nH]n3)n2)cc1)Nc1cccc(C(F)(F)F)c1 [CD532, 1-(4-((4-((5-cyclopentyl-1H-pyrazol-3-yl)amino)pyrimidin-2-yl)amino)phenyl)-3-(3-(trifluoromethyl)phenyl)urea]
EC50 (RVH-421): 0.585 µM | EC50 (RL95-2): 0.335 µM | EC50 (SNU-449): 12.1 µM | EC50 (WM35): 0.367 µM | EC50 (ML-1): 1.32 µM | EC50 (SNU-61): 1.02 µM | EC50 (MKN1): 0.86 µM | half-life [1]: ~1.5 h | AUC(0-t) ([1]; read-out: AUC0-24): 27 µM·h | time dependence of MYCN protein loss (MYCN [2]; 1 μM, time course (FIG. 12A)): clear and time-dependent loss of MYCN protein | IC50 (MYCN [2]; FIG. 1D, read-out: IC50 for on-target MYCN knockdown): ~250 nM | phosphorylation of Histone H3 at S10, dose response (P-Histone H3 (S10)): behaves similarly to MLN8237 with regard to Histone H3 phosphorylation | MYCN protein level (MYCN [3]): decreased levels of both MYCN and p-Histone H3 proteins | EC50 (GI-ME-N; read-out: CD532 EC50 (uM), GI-ME-N cell line, Nervous System): 0.428 µM | EC50 (GI-ME-N; read-out: CD532 EC50, GI-ME-N cell line, Nervous System): 0.812 µM | EC50 (YAPC): 5.34 µM | EC50 (UACC-257): 0.607 µM | EC50 (IMR-5): 0.0071 µM | EC50 (KP-N-YS): 0.27 µM | EC50 (AsPC-1): 5.41 µM | EC50 (BICR 10): 4.27 µM | EC50 (SK-MEL-30): 0.323 µM | EC50 (HO-1-N-1): 1.67 µM | EC50 (SNU-423): 0.753 µM | EC50 (BB30-HNC): 0.462 µM | EC50 (A253): 24.5 µM | EC50 (NB17): 0.282 µM | EC50 (SK-HEP-1): 1.6 µM | EC50 [4]: 223 nM | EC50 (IGR-37): 0.547 µM | EC50 (OVKATE): 6 µM

Source: patent US12551482B2, “Aurora kinase inhibitors” (The Regents of the University of California, priority 2013, dated 2026)
